According to publication PMC11892739, “Site-specific molecular glues for the 14-3-3/Tau pS214 protein–protein interaction via reversible covalent imine tethering” (RSC Medicinal Chemistry, 2025):

Test system: 14-3-3γ/Tau pS324 interaction
Test: Fluorescence anisotropy 14-3-3γ titration with compound and monovalent Tau pS324 peptide
Assay type: binding
Settings: for apparent cooperativity factor (app. α), 14-3-3γ/Tau pS324: 2D titrations, 14-3-3γ titrated at varied compound concentrations, saturation of the ratio
Description: FA assays in which 14-3-3γ was titrated to a constant concentration of compound (250 μM) in the presence of the distinct monovalent Tau peptide (10 nM) were performed.
The determined stabilization factors are concentration-dependent (here 250 μM of compound) and might differ based on assay design. […] The app. α-factors of these compounds for both 14-3-3/Tau complexes were determined by 14-3-3γ titrations in the presence of varied concentrations of the particular compound (Fig. 5d and e). Both compounds reached saturation for both 14-3-3γ/Tau complexes enabling accurate determination of the α-factor. The app. α-factors of aldehydes 1 and 18 were plotted for both 14-3-3γ/Tau complexes to investigate phospho-binding site selective cooperativity (Fig. 5f and h). To do so, the stabilization factors at a given compound concentration were plotted against the compound concentration, leading to the determination of the app. α-factors. […]
chromatography (HisTrap high performance cartridges, Cytiva). […] Dialyzed protein was concentrated to ∼40 mg/mL, analyzed by Q -Tof LC/MS, and aliquots were flash -frozen for storage at −80 °C. […] Fractions containing the 14 -3-3 protein were pooled and concentrated to ∼60 mg/mL, analyzed Q -Tof LC/MS, and aliquots were flash -frozen for storage at −80°C.
Fluorescence Anisotropy – compound titration
Compound titration assays were performed by titrating compounds (in 1% DMSO, starting at 500 μM) in a 2-fold dilution series to preformed complex of fluorescein -labeled Tau pS2 (10 nM) and 14 -3-3ζ (100 nM) (which represents approximately 20% bound Tau pS2 peptide to 14 -3-3ζ to allow further complex formation by addition of fragments 1) in FA buffer (10 mM HEPES pH 7.4, 150 mM NaCl, 50 µM TCEP, 0.1% (v/v) Tween20, 0.1% (w/v) BSA). […] Measurements were performed directly after plate preparation, using a Tecan SPARK plate reader at room temperature ( λex: 485±20 nm; λem: 535±25 nm; mirror: automatic; flashes: 30; settle time: 1 ms; gain: optimal; Z -position: calculated from well). […]

| Structure (SMILES) | apparent cooperativity factor (app. α), 14-3-3γ/Tau pS324 | SF250μM for the 14-3-3γ/Tau pS324 complex (250 μM compound, 10 nM Tau pS324 peptide, internal DMSO reference) |
| --- | --- | --- |
| O=Cc1ccc(-n2ccnc2-c2ccccc2)cc1Br [Compound 1] | 6.8 | – |
| CCc1ccc(-c2nccn2-c2ccc(C=O)c(Br)c2)cc1 [Compound 18] | 3.6 | 3.2 |
